From patent US10947558B2, “Compositions and methods for inducing resistance to soybean cyst nematode via RNAi” (priority 2015, dated 2021)

Tested on: C. elegans (N2 wild type)
Test: RNA interference in C. elegans by soaking L2 worms in HgRPS23 dsRNA (vitality/lethality)
Format: in vivo
Conditions: 10 μM, positive control, after one day of soaking
Protocol: The effectiveness of HgRPS23 siRNA in silencing the worm's ribosomal protein gene was tested in C. elegans, following the previously published protocols (Alkharouf et al., 2007, Peng et al., 2016) with modifications. A T7 promoter sequence (5′-TAATACGACTCACTATAG-3′; SEQ ID NO: 3) was added to the 5′ ends of both the forward and reverse primer to amplify the 225 bp of HgRPS23 from pRD64 by PCR. The amplified PCR product was used to produce the double stranded (ds) in vitro transcript by the MEGAscript®T7 kit (Ambion/Invitrogen, Calsbad, Calif., USA).
The wt N2 strain of C. elegans was obtained from the CGC (Caenorhabditis Genetics Center) and maintained on NGM (Nematode Growth Medium) plates (60 mm petri dishes) at room temperature. The worms were grown and synchronized using protocols from the WormBase (www.wormbase.org). The L2 worms were soaked in 100 μl M9 buffer (22 mM KH2PO4, 4.7 mM NH4Cl, 43.6 mM Na2HPO4 and 2.1 mM NaCl) containing 50 mM octopamine (Sigma, St. Louis, Mo., USA) to increase pharyngeal pumping and 2 mg/ml HgRPS23 dsRNA. The negative control L2 worms were treated by soaking in M9 buffer containing 50 mM octopamine only. The positive control L2 worms were soaked in M9 buffer containing 50 mM octopamine and 10 μM cycloheximide (Sigma, St. Louis, Mo., USA) as a translation inhibitor. C. elegans worms were treated in the wells of a 96-well plate on a gentle shaker. […]

## C[C@@H]1C[C@@H]([C@H](O)CC2CC(=O)NC(=O)C2)C(=O)[C@@H](C)C1 [cycloheximide]
  vitality rate of N2 worms: approximately 20%
